In assay [1] the test system is B16. Kind of assay: In vitro cytotoxicity against B16 tumor cell lines. The conditions noted are these: Mus musculus. The class given is functional, cell-based.
In assay [2] the test system is P388. Kind of assay: In vitro cytotoxicity against P388 tumor cell lines. In kind it is functional, cell-based. As to conditions: Mus musculus.
A further assay relates to SNU-16. Kind of assay: In vitro cytotoxicity against SNU16 tumor cell lines. In kind it is functional, cell-based. As to conditions: Homo sapiens.
Assay [3] concerns B16. Kind of assay: In vivo antitumor activity was determined against B16 tumor cell lines in mice at dose of 0.125 mg/kg administered intraperitoneally. (p<0.05). The class given is functional, Mus musculus. The conditions noted are these: route intraperitoneal.
In assay [4] the test system is P388. Kind of assay: In vivo antitumor activity was determined against P388 tumor cell lines in mice at dose of 0.25 mg/kg administered intraperitoneally. (p<0.05). The class given is functional, Mus musculus. As to conditions: route intraperitoneal.
The test system of assay [5] is B16. Kind of assay: In vivo antitumor activity was determined against B16 tumor cell lines in mice at dose of 1 mg/kg administered intraperitoneally. (p<0.05). The conditions noted are these: route intraperitoneal. In kind it is functional, Mus musculus.
Assay [6] deals with P388. Kind of assay: In vivo antitumor activity was determined against P388 tumor cell lines in mice at dose of 0.0625 mg/kg administered intraperitoneally. The conditions noted are these: route intraperitoneal. In kind it is functional, Mus musculus.
Assay [7] relates to B16. Kind of assay: In vivo antitumor activity was determined against B16 tumor cell lines in mice at dose of 0.03125 mg/kg administered intraperitoneally. As to conditions: route intraperitoneal. The class given is functional, Mus musculus.
Assay [8] concerns P388. Kind of assay: In vivo antitumor activity was determined against P388 tumor cell lines in mice at dose of 1 mg/kg administered intraperitoneally (p<0.05). The class given is functional, Mus musculus. The conditions noted are these: route intraperitoneal.
Assay [9] relates to B16. Kind of assay: In vivo antitumor activity was determined against B16 tumor cell lines in mice at dose of 0.25 mg/kg administered intraperitoneally. (p<0.05). The conditions noted are these: route intraperitoneal. The class given is functional, Mus musculus.
The test system of assay [10] is B16. Kind of assay: In vivo antitumor activity was determined against B16 tumor cell lines in mice at dose of 0.0625 mg/kg administered intraperitoneally. (p<0.05). In kind it is functional, Mus musculus. The conditions noted are these: route intraperitoneal.
Assay [11] has as its system P388. Kind of assay: In vivo antitumor activity was determined against P388 tumor cell lines in mice at dose of 0.03125 mg/kg administered intraperitoneally. The conditions noted are these: route intraperitoneal. The class given is functional, Mus musculus.
In assay [12] the test system is P388. Kind of assay: In vivo antitumor activity was determined against P388 tumor cell lines in mice at dose of 0.125 mg/kg administered intraperitoneally. (p<0.05). The class given is functional, Mus musculus. As to conditions: route intraperitoneal.
Assay [13] has as its system B16. Kind of assay: In vivo antitumor activity was determined against B16 tumor cell lines in mice at dose of 1 mg/kg administered intraperitoneally. In kind it is functional, Mus musculus. As to conditions: route intraperitoneal.
For assay [14], the system named is P388. Kind of assay: In vivo antitumor activity was determined against P388 tumor cell lines in mice at dose of 1 mg/kg administered intraperitoneally. In kind it is functional, Mus musculus. The conditions noted are these: route intraperitoneal.
Assay [15] concerns P388. Kind of assay: In vivo antitumor activity was determined against P388 tumor cell lines in mice at dose of 0.25 mg/kg administered intraperitoneally. As to conditions: route intraperitoneal. In kind it is functional, Mus musculus.
Assay [16] relates to P388. Kind of assay: In vivo antitumor activity was determined against P388 tumor cell lines in mice at dose of 0.125 mg/kg administered intraperitoneally. The class given is functional, Mus musculus. As to conditions: route intraperitoneal.

Converted amounts (≈) assume the structure as drawn.

As for `CSC1[C@H]2C(=O)N(C)[C@@H](C(C)C)C(=O)OC[C@@H](NC(=O)c3cnc4ccccc4n3)C(=O)N[C@@H](C)C(=O)N(C)[C@@H](C[S+]1C)C(=O)N(C)[C@@H](C(C)C)C(=O)OC[C@@H](NC(=O)c1cnc3ccccc3n1)C(=O)N[C@@H](C)C(=O)N2C.[Cl-]` (some centres undefined) [listing 1 of 2 here], the results for the IC50 in the assay on B16 [1], with P388 [2] and with SNU-16 were 0.09 ng/mL, 0.0081 ng/mL and 0.0049 ng/mL, respectively.
Turning to `CSC1[C@H]2C(=O)N(C)[C@@H](C(C)C)C(=O)OC[C@@H](NC(=O)c3cnc4ccccc4n3)C(=O)N[C@@H](C)C(=O)N(C)[C@@H](C[S+]1C)C(=O)N(C)[C@@H](C(C)C)C(=O)OC[C@@H](NC(=O)c1cnc3ccccc3n1)C(=O)N[C@@H](C)C(=O)N2C.[Cl-]` (some centres undefined) [listing 2 of 2 here], the MST in the assay with B16 [3] worked out at 25 days; in the assay on P388 [4], 34 days; in the assay on B16 [5] it was 28 days; in the assay on P388 [6] it was 32 days; in the assay on B16 [7], 23 days; in the assay on P388 [8], 35 days. Moreover, the MST in the assay on B16 [9] is 26 days; in the assay with B16 [10], 24 days; with P388 [11] it was 31 days; in the assay with P388 [12] it was 33 days.
As for `CC(C)[C@H]1C(=O)OC[C@@H](NC(=O)c2cnc3ccccc3n2)C(=O)N[C@@H](C)C(=O)N(C)[C@H]2CSC([S+](C)[O-])[C@@H](C(=O)N1C)N(C)C(=O)[C@H](C)NC(=O)[C@H](NC(=O)c1cnc3ccccc3n1)COC(=O)[C@H](C(C)C)N(C)C2=O` (some centres undefined) [listing 1 of 2 here], the IC50 turned out to be 310 ng/mL (≈ 277 nM) in the assay with B16 [1], 8.8 ng/mL (≈ 7.88 nM) in the assay on P388 [2] and 540 ng/mL (≈ 483 nM) in the assay with SNU-16.
With `CC(C)[C@H]1C(=O)OC[C@@H](NC(=O)c2cnc3ccccc3n2)C(=O)N[C@@H](C)C(=O)N(C)[C@H]2CSC([S+](C)[O-])[C@@H](C(=O)N1C)N(C)C(=O)[C@H](C)NC(=O)[C@H](NC(=O)c1cnc3ccccc3n1)COC(=O)[C@H](C(C)C)N(C)C2=O` (some centres undefined) [listing 2 of 2 here], the MST with B16 [13] was determined as 20 days; with P388 [14], 27 days.
With `CC(C)[C@H]1C(=O)OC[C@@H](NC(=O)c2cnc3ccccc3n2)C(=O)N[C@@H](C)C(=O)N(C)[C@H]2C[S+]([O-])C([S+](C)[O-])[C@@H](C(=O)N1C)N(C)C(=O)[C@H](C)NC(=O)[C@H](NC(=O)c1cnc3ccccc3n1)COC(=O)[C@H](C(C)C)N(C)C2=O` (some centres undefined) [listing 1 of 2 here], the figures for the IC50 with B16 [1], in the assay with P388 [2] and in the assay with SNU-16 were 1700 ng/mL (≈ 1500 nM), 98 ng/mL (≈ 86.5 nM) and 590 ng/mL (≈ 521 nM), respectively.
On to `CC(C)[C@H]1C(=O)OC[C@@H](NC(=O)c2cnc3ccccc3n2)C(=O)N[C@@H](C)C(=O)N(C)[C@H]2C[S+]([O-])C([S+](C)[O-])[C@@H](C(=O)N1C)N(C)C(=O)[C@H](C)NC(=O)[C@H](NC(=O)c1cnc3ccccc3n1)COC(=O)[C@H](C(C)C)N(C)C2=O` (some centres undefined) [listing 2 of 2 here], for which the MST is 17 days in the assay on B16 [13] and 31 days in the assay with P388 [14].
As for `CC(C)[C@H]1C(=O)OC[C@@H](NC(=O)c2cnc3ccccc3n2)C(=O)N[C@@H](C)C(=O)N(C)[C@H]2CSC(S(C)(=O)=O)[C@@H](C(=O)N1C)N(C)C(=O)[C@H](C)NC(=O)[C@H](NC(=O)c1cnc3ccccc3n1)COC(=O)[C@H](C(C)C)N(C)C2=O` (some centres undefined) [listing 1 of 2 here], the half-inhibitory concentration (IC50) with B16 [1] is 820 ng/mL (≈ 724 nM); in the assay on P388 [2], 60 ng/mL (≈ 52.9 nM); with SNU-16, 1100 ng/mL (≈ 971 nM).
As for `CC(C)[C@H]1C(=O)OC[C@@H](NC(=O)c2cnc3ccccc3n2)C(=O)N[C@@H](C)C(=O)N(C)[C@H]2CSC(S(C)(=O)=O)[C@@H](C(=O)N1C)N(C)C(=O)[C@H](C)NC(=O)[C@H](NC(=O)c1cnc3ccccc3n1)COC(=O)[C@H](C(C)C)N(C)C2=O` (some centres undefined) [listing 2 of 2 here], the MST was 17 days in the assay on B16 [13] and 25 days in the assay on P388 [14].
Take `COc1cccc2c1C(=O)c1c(O)c3c(c(O)c1C2=O)C[C@@](O)(C(=O)CO)C[C@@H]3O[C@H]1C[C@H](N)[C@H](O)[C@H](C)O1` [DOXORUBICIN]: the IC50 in the assay with B16 [1] came to 540 ng/mL (≈ 994 nM); in the assay on P388 [2] it was 9.6 ng/mL (≈ 17.7 nM); with SNU-16, 160 ng/mL (≈ 294 nM).
As for `CS[C@H]1SC[C@H]2C(=O)N(C)[C@@H](C(C)C)C(=O)OC[C@@H](NC(=O)c3cnc4ccccc4n3)C(=O)N[C@@H](C)C(=O)N(C)[C@@H]1C(=O)N(C)[C@@H](C(C)C)C(=O)OC[C@@H](NC(=O)c1cnc3ccccc3n1)C(=O)N[C@@H](C)C(=O)N2C` [ECHINOMYCIN], the MST came to 25 days in the assay with B16 [3]; 26 days in the assay with P388 [15]; 32 days in the assay with P388 [6]; 33 days with P388 [16]; 23 days in the assay on B16 [7]; 21 days in the assay on B16 [13]. Also, the MST in the assay with B16 [9] is 23 days; in the assay on B16 [10], 24 days; in the assay on P388 [11], 31 days; in the assay with P388 [14], 27 days. For the same compound, the values for the IC50 with B16 [1], with P388 [2] and in the assay with SNU-16 were 6.5e-05 ng/mL (≈ 5.9e-05 nM), 0.043 ng/mL (≈ 0.039 nM) and 0.00016 ng/mL (≈ 0.000145 nM), respectively.

A word on the IC50: it is the concentration that inhibits the measured activity by half. A higher IC50 goes with a need for much substance.

The values above are taken from ChEMBL document CHEMBL1131512, “A new antitumor agent: methyl sulfonium perchlorate of echinomycin” (Bioorg Med Chem Lett, 1998).
